Laboratory results reported in PubChem BioAssay (NCI).
Several values for one entry are separate records, joined by “and”; a condition that tells them apart may be missing. Equal entries are not always repeated.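 Results reflect a 48-hour exposure of cells in 96-well plates to compound at five concentrations. At the GI50, growth is halved. Definition used: TGI = concentration required for complete inhibition of growth.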

How the values were obtained:
Test in all cases: NCI tumour cell line growth inhibition, 48 h
HT29 colon = test system: HT29 colon
MDA-MB-231 breast = test system: MDA-MB-231 breast
SK-MEL-28 melanoma = test system: SK-MEL-28 melanoma
DU-145 prostate = test system: DU-145 prostate
KM12 colon = test system: KM12 colon
HOP-92 NSCLC = test system: HOP-92 NSCLC
PC-3 prostate = test system: PC-3 prostate
CAKI-1 renal = test system: CAKI-1 renal
ACHN renal = test system: ACHN renal
NCI-H226 lung = test system: NCI-H226 lung

Structure (SMILES)	TGI (HT29 colon) [µM]	TGI (MDA-MB-231 breast) [µM]	TGI (SK-MEL-28 melanoma)	TGI (DU-145 prostate) [µM]	TGI (KM12 colon) [µM]	TGI (HOP-92 NSCLC)	TGI (PC-3 prostate) [µM]	TGI (CAKI-1 renal)	TGI (ACHN renal) [µM]	TGI (NCI-H226 lung)	GI50 (NCI-H226 lung) [nM]	GI50 (HT29 colon) [nM]	GI50 (MDA-MB-231 breast) [nM]	GI50 (SK-MEL-28 melanoma) [nM]	GI50 (DU-145 prostate) [nM]	GI50 (KM12 colon) [nM]	GI50 (HOP-92 NSCLC) [nM]	GI50 (CAKI-1 renal) [nM]	GI50 (PC-3 prostate) [nM]	GI50 (ACHN renal) [nM]
O=S(=O)(O)c1ccc2c(N=Nc3ccccc3Cl)c(O)ccc2c1	> 100	> 100	> 100 µM	> 100	> 100	> 100 µM	> 100	> 100 µM	> 100	–	–	–	–	–	–	–	–	–	–	–
COc1ccc(N=C2C(=Nc3ccc(OC)cc3)N(S(=O)(=O)c3ccccc3)C(=S)N2c2ccc(OC)cc2)cc1	–	92.1	> 100 µM	> 100	> 100	> 100 µM	> 100	> 100 µM	> 100	> 100 µM	–	–	–	–	–	–	–	–	–	–
CC1C(c2ccc3c(c2)OCO3)c2cc3c(cc2OC1N1CCCCC1)OCO3 (stereo not drawn)	> 100	–	> 100 µM	> 100	> 100	–	> 100	79.9 µM	> 100	–	–	–	–	–	–	–	–	–	–	–
Cc1ccc(O)c(-c2csc(NCN3CCN(CNc4nc(-c5cc(C)ccc5O)cs4)CC3)n2)c1	> 100	> 100	> 100 µM	> 100	> 100	> 100 µM	> 100	> 100 µM	> 100	> 100 µM	–	–	–	–	–	–	–	–	–	–
O=C(NCCCCNCCCNC(=O)c1cc(-c2ccccc2)nc2ccccc12)c1cc(-c2ccccc2)nc2ccccc12	3.1	–	3.42 µM	3.8	–	3.01 µM	2.98	3.82 µM	3.3	3.26 µM	–	–	–	–	–	–	–	–	–	–
CCOC(=O)COc1c(OC)cc(C2C3=C(COC3=O)Oc3cc4c(cc32)OCO4)cc1OC (stereo not drawn)	8.29	> 100	–	> 29.1	> 100	> 45.1 µM	> 100	38.1 µM	> 45.8	> 100 µM	–	–	–	–	–	–	–	–	–	–
NC12CC3CC4C1CC1CC2C(C3)C4(N)C1	> 100	> 100	> 100 µM	> 100	> 100	> 100 µM	> 100	> 100 µM	> 100	> 100 µM	–	–	–	–	–	–	–	–	–	–
COC(=O)c1ccc(CCc2cc(O)c(Br)cc2O)cc1	32.8	29	34.4 µM	27.5	> 55.3	28.2 µM	20.6	23.2 µM	25.9	55.1 µM	–	–	–	–	–	–	–	–	–	–
O=C1C=C(N2CC2)C(=O)C=C1N1CC1	1.4	–	0.68 µM and 0.654 µM	–	2.22	0.576 µM and 1.56 µM	–	0.0247 µM and 0.0675 µM	0.303	0.261 µM and 1.4 µM	12.9	18.5	79.2	187	10.9	242	152	0.251	–	–
CC(C)(C)OC(=O)NC(Cc1ccc(OCc2ccccc2)cn1)C(=O)N1CCSCC1 (stereo not drawn)	> 100	> 100	> 100 µM	> 100	> 100	> 100 µM	98.9	> 100 µM	> 100	–	–	–	–	–	–	–	–	–	–	–
COc1cc(/C=C/C(=O)N[C@@H]2C(=O)N3[C@@H]2SC(C)(C)[C@@H]3C(=O)O)cc(OC)c1OC	> 100	> 100	> 100 µM	> 100	> 100	> 100 µM	> 100	> 100 µM	> 100	> 100 µM	–	–	–	–	–	–	–	–	–	–
Cc1ccc(S(=O)(=O)/N=C(\[O-])C2=C(c3ccccc3)NN(C)c3nc4cccc[n+]4nc32)cc1	> 100	> 100	> 100 µM	> 100	> 100	81.9 µM	> 100	> 100 µM	> 100	> 100 µM	–	–	–	–	–	–	–	–	–	–
CCOC(=O)/C=C(\N=P(c1ccccc1)(c1ccccc1)c1ccccc1)C(F)(F)C(F)(F)C(F)(F)C(F)(F)C(F)(F)F	> 100	> 100	> 100 µM	> 100	> 100	> 100 µM	> 100	> 100 µM	> 100	–	–	–	–	–	–	–	–	–	–	–
COc1cccc2c1C(=O)c1c(O)c3c(c(O)c1C2=O)C[C@@](O)(/C(C)=N/NC(=O)c1ccccc1)C[C@@H]3OC1CC(N)C(O)C(C)O1 (stereo partly drawn)	6.04	3.14	4.02 µM	0.903	6.64	1.11 µM	1.75	1.47 µM	0.975	0.786 µM	–	–	–	–	–	–	–	–	–	–
CSc1nncc2[nH]cnc12	> 100	> 100	> 100 µM	> 100	> 100	–	> 100	> 100 µM	> 100	> 100 µM	–	–	–	–	–	–	–	–	–	–
COC(OC)(c1ccccc1)C(I)I	34.9	36.4	30.7 µM	> 67.7	40.1	26.7 µM	30.7	24.1 µM	31.9	42.4 µM	–	–	–	–	–	–	–	–	–	–
N#C[C@@]12CCCC(=O)[C@@H]1[C@H]1CCC[C@H]12	52.4	31.2	35.3 µM	28.8	27.4	38 µM	35.7	31.4 µM	33.1	47.6 µM	–	–	–	–	–	–	–	–	–	–
CCc1n[nH]c(=O)n1NC(=O)c1ccccc1C(=O)O	> 100	> 100	> 100 µM	> 100	> 100	> 100 µM	> 100	–	> 100	–	–	–	–	–	–	–	–	–	–	–
NC(Cc1c[nH]c2ccccc12)C(=O)O (stereo not drawn)	> 300	–	> 300 µM	–	> 300	> 300 µM	–	> 300 µM	–	> 300 µM	–	–	–	–	–	–	–	–	–	–
COc1ccc(Cl)cc1NC(=O)c1c(NC(=O)C(F)(F)C(F)(F)F)sc2c1CCCCC2	> 100	–	> 100 µM	> 100	–	0.947 µM	11.3	4.86 µM	7.11	6.05 µM	1910	2480	–	1900	2720	–	263	1030	1470	1760
CSc1ccc(/C=C2\N=C(c3ccccc3)N(c3nc4c(Cl)cc(Cl)cc4s3)C2=O)cc1	46.4	62.5	> 100 µM	93.7	88.6	> 100 µM	43.3	> 100 µM	68.5	–	–	–	–	–	–	–	–	–	–	–
